Results published in US11060087B2, “Synthetic promoters for high throughput screening and gene modulation” (The Regents of the University of California, priority 2016, dated 2021).

Key:
islet neoplasia (INeo) = test: Potentiation of the INeo response to somatostatin analogues; details: preliminary data
Excerpt: The following are key findings in this field: 1.

BIRC5 = test: High-throughput screening of FDA-approved drug library, BIRC5 synthetic promoter-driven luciferase; assay type: cell-based, human; details: BIRC5SP-Luc2-Puro MiaPaca2 cells, 48 hours after drug administration, Bright-Glo / CellTiter-Glo
Excerpt: Differentially over-expressed BIRC5 was validated using RT-PCR in rPDAC versus matching non-tumor pancreas (FIG. 8A), as well as western blot assay of ATCC™ PDAC cell lines (FIG. 8B). These preliminary data support the WGCNA that BIRC5 is an actionable gene (AG) for rPDAC. A powerful synthetic promoter for BIRC5, BIRC5-SP (BL-2), was generated (FIG. 8C) and used for BIRC5^SP-Luc2-Puro stable transfection into MiaPaca2 cells, which in turn were used for high-throughput small molecule screening (HTS) of the FDA-approved drug library. BIRC5^SP-Luc2-Puro PDAC cells were plated on 384-well plates and 2100 FDA-approved drugs were applied to cells with a pin plate automatic system. Luciferase expression was measured in a plate reader 48 hours after drug administration using Bright-Glo™. Cell viability of treated cells was measured using CellTiter-Glo™. BIRC5-luciferase signal read outs were normalized using cell viability measurements. Inhibitory drugs include daunorubicin and paclitaxel (Kusukawa N, Ishida H, Tanase K, Ito H, Aoki Y, Ooyama N, et al. [Successful treatment with docetaxel and prednisolone for paxlitaxel and carboplatin-resistant prostate cancer]. Hinyokika kiyo Acta urologica Japonica. 2013; 59(5):301-4. PubMed PMID: 23719139), as well as other novel rPDAC drugs such as bergenin, simvastatin, fluvastatin (Garwood E R, Kumar A S, Baehner F L, Moore D H, Au A, Hylton N, et al. Fluvastatin reduces proliferation and increases apoptosis in women with high grade breast cancer. Breast cancer research and treatment. 2010; 119(1):137-44. doi: 10.1007/s10549-009-0507-x. PubMed PMID: 19728082; PubMed Central PMCID: PMC4087110; Bocci G, Fioravanti A, Orlandi P, Bernardini N, Collecchi P, Del Tacca M, et al. Fluvastatin synergistically enhances the antiproliferative effect of gemcitabine in human pancreatic cancer MIAPaCa-2 cells. British journal of cancer. 2005; 93(3):319-30. doi: 10.1038/sj.bjc.6602720. […]

[1] = system: pancreatic ductal adenocarcinoma cells (PANC-1, MIA PaPc2, AsPc-1, and Capan-2); test: LAMC2 synthetic promoter luciferase reporter assay in PDAC cell lines; assay type: cell-based, human
Excerpt: FIG. 22 is a graph showing the relative luciferase activity of various synthetic LAMC2 promoters (i.e. LamS1, Lams1E4T, Lams2E4T, and Lams3E4T) and CMV in various cell lines, in accordance with one or more embodiments of the invention.
(§1) FIG. 23 is a graph showing the relative luciferase activity of an endogenous LAMC2 promoter (LAMC2-EP-Luc), a synthetic LAMC2 promoter (LAMC2-SP-Luc), and CMV in various cell lines, in accordance with one or more embodiments of the invention.
LAMC2 is a key oncologic regulator of apoptosis that is also over-expressed in most cancers, including pancreatic cancer, but not in normal cells. In one aspect of the invention, a LAMC2 synthetic promoter (BL-3) generated from the endogenous promoter of LAMC2 is provided that is 1000× more powerful than the endogenous promoter and also more powerful than the cytomegalovirus (CMV) promoter in stimulating gene expression. The promoter competes with the CMV promoter, which is non-specific for cancer. The BL-3 synthetic promoter is more highly specific for cancer, especially pancreatic cancer, since it is not expressed in normal cells, including islets of Langerhans, and therefore is less toxic. The technique to generate the LAMC2 synthetic promoter (BL-3) and its uses are similar to U.S. patent application Ser. No. 14/396,967, which describes a synthetic BL-1 promoter for the insulin gene. However, the synthetic BL-1 promoter is expressed in islets of Langerhans, which therefore can lead to […] and diabetes as a toxic effect.

[2] = system: human primary pancreatic epithelial cells (HPPE); test: LAMC2 synthetic promoter luciferase reporter assay in normal cells; assay type: cell-based; details: HPPE and human pancreatic duct epithelial cells (FIG. 23)
Excerpt: as §1

Q: For C[C@H](N)COC(=O)[C@H](CCCCN)NC(=O)Cc1c(-c2ccc3ccccc3c2)[nH]c2c1ccc1ccccc12 [SSTR5 small molecule agonist], which “effect on the INeo response to SAs” value (islet neoplasia (INeo)) is on record?
A: potentiates the INeo response to SAs

Q: How did the “effect on BIRC5-luciferase signal normalized using cell viability” value (BIRC5) turn out when COc1c(O)cc2c(c1O)[C@@H]1O[C@H](CO)[C@@H](O)[C@H](O)[C@H]1OC2=O [bergenin] was run?
A: Inhibitory

Q: How did the “effect on BIRC5-luciferase signal normalized using cell viability” value (BIRC5) turn out when COc1cccc2c1C(=O)c1c(O)c3c(c(O)c1C2=O)C[C@@](O)(C(C)=O)C[C@@H]3O[C@H]1C[C@H](N)[C@H](O)[C@H](C)O1 [daunorubicin] was run?
A: Inhibitory

Q: How did the “effect on the INeo response to SAs” value (islet neoplasia (INeo)) turn out when CN(C)C(=N)N=C(N)N [metformin] was run?
A: potentiate the INeo response to SAs

Q: With CC(=O)O[C@H]1C(=O)[C@@]2(C)[C@H]([C@H](OC(=O)c3ccccc3)[C@]3(O)C[C@H](OC(=O)[C@H](O)[C@@H](NC(=O)c4ccccc4)c4ccccc4)C(C)=C1C3(C)C)[C@]1(OC(C)=O)CO[C@@H]1C[C@@H]2O [paclitaxel] as the molecule, how does the “effect on BIRC5-luciferase signal normalized using cell viability” value (BIRC5) read?
A: Inhibitory

B1: BL-3: LAMC2 synthetic promoter generated from the endogenous promoter of LAMC2 (LamS1, SEQ ID NO: 10/11) (nucleic acid, listed as Homo sapiens)
DNA 1: CGGGCCAGGTGTGCGCCCTCCTCGCTGCGAGGGGGAGCGGGCGGCTGCGGGGAGCGATTTTCCAGCCCGGTTTGTGCTCTGTGTGTTTGTCTGCCTCTGGAGGGCTGGGTCCTCCTTATTCACAGGTGAGTCACACCCTGAAACACAGGCTCTCTTCCTGTCAGGACTGAGTCAGGTAGAAGAGTCGTGCGCCCTCCTCGCTGCGAGGGGGAGCGGGCGGCTGCGGGGAGCGATTTTCCAGCCCGGTTTGTGCTCTGTGTGTTTGTCTGCCTCTGGAGGGCTGGGTCCTCCTTATTCACAGGTGAGTCACACCCTGAAACACAGGCTCTCTTCCTGTCAGGACTGAGTCAGGTAGAAGAGTCGTGCGCCCTCCTCGCTGCGAGGGGGAGCGGGCGGCTGCGGGGAGCGATTTTCCAGCCCGGTTTGTGCTCTGTGTGTTTGTCTGCCTCTGGAGGGCTGGGTCCTCCTTATTCACAGGTGAGTCACACCCTGAAACACAGGCTCTCTTCCTGTCAGGACTGAGTCAGGTAGAAGAGTCAAGCTTATAAAACCACCTGATCAAGGAAAAGGAAGGCACAGCGGAGCGCAGAGTGAGAACCACCAACCGGAATTC
DNA 2: CGGTCGGGCCAGGTGTGCGCCCTCCTCGCTGCGAGGGGGAGCGGGCGGCTGCGGGGAGCGATTTTCCAGCCCGGTTTGTGCTCTGTGTGTTTGTCTGCCTCTGGAGGGCTGGGTCCTCCTTATTCACAGGTGAGTCACACCCTGAAACACAGGCTCTCTTCCTGTCAGGACTGAGTCAGGTAGAAGAGTCGTGCGCCCTCCTCGCTGCGAGGGGGAGCGGGCGGCTGCGGGGAGCGATTTTCCAGCCCGGTTTGTGCTCTGTGTGTTTGTCTGCCTCTGGAGGGCTGGGTCCTCCTTATTCACAGGTGAGTCACACCCTGAAACACAGGCTCTCTTCCTGTCAGGACTGAGTCAGGTAGAAGAGTCGTGCGCCCTCCTCGCTGCGAGGGGGAGCGGGCGGCTGCGGGGAGCGATTTTCCAGCCCGGTTTGTGCTCTGTGTGTTTGTCTGCCTCTGGAGGGCTGGGTCCTCCTTATTCACAGGTGAGTCACACCCTGAAACACAGGCTCTCTTCCTGTCAGGACTGAGTCAGGTAGAAGAGTCAAGCTTATAAAACCACCTGATCAAGGAAAAGGAAGGCACAGCGGAGCGCAGAGTGAGAACCACCAACCG
Q: Which “more powerful than the endogenous promoter in stimulating gene expression” value ([1]; LAMC2 synthetic promoter vs endogenous LAMC2 promoter) does the source give for B1 here?
A: 1000 ×

Q: What about the “relative luciferase activity in comparison to endogenous LAMC2 promoter and CMV promoter” value ([1]; PANC-1, MIA PaPc2, AsPc-1, Capan-2 (FIG. 23)) of the same molecule?
A: greatest amount of activity

Q: What about the “relative luciferase activity among synthetic LAMC2 promoters and CMV” value ([1]; various cell lines (FIG. 22)) of the same molecule?
A: greatest amount of luciferase activity

Q: What about the “relative luciferase activity in normal pancreatic cells” value [2] of the same molecule?
A: no activity
